Results: patent publication US8664257B2, “Oxygen-substituted 3-heteroaroylamino-propionic acid derivatives and their use as pharmaceuticals” (Sanofi, priority 2010, dated 2014)

Target: T1, Recombinant human cathepsin A (Homo sapiens, UniProt P10619)
T1 construct: Recombinant human cathepsin A (residues 29-480, with a C-terminal 10-His tag); 10-His (C); purchased R&D Systems 1049-SE
T1 sequence (P10619 29-312 limits assumed): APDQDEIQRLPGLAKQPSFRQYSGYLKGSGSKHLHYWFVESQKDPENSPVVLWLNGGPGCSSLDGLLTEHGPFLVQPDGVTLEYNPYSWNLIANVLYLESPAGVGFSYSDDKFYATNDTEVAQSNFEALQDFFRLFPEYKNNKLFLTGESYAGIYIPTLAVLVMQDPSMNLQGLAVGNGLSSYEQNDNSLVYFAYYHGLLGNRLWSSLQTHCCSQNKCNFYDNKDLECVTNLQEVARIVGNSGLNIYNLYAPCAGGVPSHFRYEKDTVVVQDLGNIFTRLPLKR
T1 sequence (P10619 327-480 limits assumed): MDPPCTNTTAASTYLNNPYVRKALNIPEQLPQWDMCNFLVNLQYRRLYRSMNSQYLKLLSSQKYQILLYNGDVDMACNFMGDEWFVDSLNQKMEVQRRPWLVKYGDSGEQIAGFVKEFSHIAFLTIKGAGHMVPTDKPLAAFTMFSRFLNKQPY
Experiment: Cathepsin A inhibitory activity
Assay type: biochemical
Conditions: pharmacological test "Cathepsin A inhibitory activity"; IC50 given as class A/B/C; read-out: Activity (2): Cathepsin A inhibitory activity, IC50 class
Method in brief: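 Read-out was microfluidic separation of cleaved vs. uncleaved Bodipy FL-bradykinin (2 μM), giving turnover, % inhibition and IC50. Compound and 833 ng/ml enzyme met for 15 min RT in pH 5.5 MES/DTT before substrate (15 min RT). The 29-480 His-tagged human enzyme was first activated by cathepsin L, then E-64 (10 μM).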

Row | IC50 | Structure (SMILES)
1 | 100 to 1000 nM | O=C(O)CC(NC(=O)c1cc(O)n(-c2ccccc2F)n1)c1ccc(Cl)cc1F (centres unmarked) [Example 243]
2 | 100 to 1000 nM | O=C(O)C[C@H](NC(=O)c1cc(O)n(-c2ccccc2Cl)n1)c1cccnc1 [Example 145]
3 | 100 to 1000 nM | CCc1ccc(C(CC(=O)O)NC(=O)c2cc(O)n(-c3cccc(Cl)c3)n2)cc1 (centres unmarked) [Example 264]
4 | 100 to 1000 nM | O=C(O)CC(NC(=O)c1cc(O)n(-c2ccccc2Cl)n1)c1cccc(C(F)(F)F)c1Cl (centres unmarked) [Example 223]
5 | 1000 to 30000 nM | Cc1ccccc1[C@H](CC(=O)O)NC(=O)c1cc(O)n(-c2nccc(C(F)(F)F)n2)n1 [Example 138]

Same assay, conditions: read-out: Activity (2): Cathepsin A inhibitory activity (IC50 class)

Row | IC50 | Structure (SMILES)
6 | < 100 nM | Cc1ccccc1[C@H](CC(=O)O)NC(=O)c1cc(OCCc2c(C)noc2C)n(-c2ccccc2F)n1 [Example 628]
7 | 1000 to 30000 nM | O=C(O)CC(NC(=O)c1cc(O)n(-c2ccccc2)n1)c1ccc(-c2ccccc2F)cc1 (centres unmarked) [Example 583]
8 | 1000 to 30000 nM | O=C(O)CC(NC(=O)c1cc(O)n(-c2ccccc2F)n1)c1ccc(N2CCCC2)cc1 (centres unmarked) [Example 566, 3-{[1-(2-Fluoro-phenyl)-5-hydroxy-1H-pyrazole-3-carbonyl]-amino}-3-(4-pyrrolidin-1-yl-phenyl)-propionic acid]
9 | < 100 nM | COc1cc(C(=O)N[C@@H](CC(=O)O)c2ccc(Cl)cc2)nn1-c1ccccc1F [Example 671]
10 | < 100 nM | COc1ccc(C(CC(=O)O)NC(=O)c2cc(OCC3CC3)n(-c3ccccc3F)n2)c(Cl)c1 (centres unmarked) [Example 705]
11 | < 100 nM | Cc1ccccc1[C@H](CC(=O)O)NC(=O)c1cc(OCc2ccon2)n(-c2ccccc2F)n1 [Example 647]
12 | 1000 to 30000 nM | O=C(O)CC(NC(=O)c1cc(O)n(C2CCCC2)n1)c1ccc(-c2ccc(F)cc2)cc1 (centres unmarked) [Example 574]
13 | 100 to 1000 nM | CCOc1cc(C(=O)N[C@@H](CC(=O)O)c2cccc(OC)c2)nn1-c1ccccc1F [Example 711]
14 | < 100 nM | COc1cc(C(=O)NC(CC(=O)O)c2ccc(C)cc2C)nn1-c1ccccc1F (centres unmarked) [Example 666]
15 | 100 to 1000 nM | O=C(O)CC(NC(=O)c1cc(O)n(-c2ccccc2F)n1)c1ccc(-n2cncn2)cc1 (centres unmarked) [Example 550, 3-{[1-(2-Fluoro-phenyl)-5-hydroxy-1H-pyrazole-3-carbonyl]-amino}-3-(4-[1,2,4]triazol-1-yl-phenyl)-propionic acid]
16 | < 100 nM | Cc1ccccc1[C@H](CC(=O)O)NC(=O)c1cc(OCC2CC2)n(-c2ccccc2)n1 [Example 622]

Row | Structure (SMILES) | IC50
17 | Cc1ccc([C@H](CC(=O)O)NC(=O)c2cc(OC[C@@](C)(O)C(C)C)n(-c3ccccc3F)n2)cc1 [Example 766, (S)-3-{[1-(2-Fluoro-phenyl)-5-((S)-2-hydroxy-2,3-dimethyl-butoxy)-1H-pyrazole-3-carbonyl]-amino}-3-p-tolyl-propionic acid] | < 100 nM

Same assay, conditions: read-out: Activity (2): Cathepsin A inhibitory activity, IC50 class

Row | IC50 | Structure (SMILES)
18 | < 100 nM | O=C(O)CC(NC(=O)c1cc(O)n(-c2ccccc2F)n1)c1cccc(Cl)c1Cl (centres unmarked) [Example 402]
19 | 1000 to 30000 nM | COc1ccc(C(CC(=O)O)NC(=O)c2cc(O)n(-c3ccccc3)n2)cc1OC (centres unmarked) [Example 11]
20 | 100 to 1000 nM | COc1cccc(C(CC(=O)O)NC(=O)c2cc(O)n(-c3ccccc3)n2)c1 (centres unmarked) [Example 9]
21 | 100 to 1000 nM | N#Cc1cccc([C@H](CC(=O)O)NC(=O)c2cc(O)n(-c3ccc(F)cc3F)n2)c1 [Example 381]
22 | 100 to 1000 nM | Cc1ccccc1C(CC(=O)O)NC(=O)c1cc(O)n(-c2ccccc2)n1 (centres unmarked) [Example 21]
23 | 100 to 1000 nM | O=C(O)C[C@H](NC(=O)c1cc(O)n(-c2ccccc2Cl)n1)c1ccccc1F [Example 107]
24 | 1000 to 30000 nM | CC(C)(C)Oc1cccc(C(CC(=O)O)NC(=O)c2cc(O)n(-c3ccccc3)n2)c1 (centres unmarked) [Example 6]
25 | 100 to 1000 nM | O=C(O)CC(NC(=O)c1cc(O)n(-c2ccc(F)cc2)n1)c1cccc2c1OCO2 (centres unmarked) [Example 336]
26 | 100 to 1000 nM | O=C(O)CC(NC(=O)c1cc(O)n(-c2ccc(F)cc2)n1)c1cccc(C(F)(F)F)c1F (centres unmarked) [Example 360]
27 | 100 to 1000 nM | O=C(O)C[C@H](NC(=O)c1cc(O)n(-c2ccccc2)n1)c1cccnc1 [Example 137]
28 | < 100 nM | O=C(O)C[C@H](NC(=O)c1cc(O)n(-c2ccccc2F)n1)c1ccccc1Br [Example 397]
29 | 100 to 1000 nM | O=C(O)CC(NC(=O)c1cc(O)n(-c2cccc(F)c2)n1)c1ccc(-c2cccc(F)c2)cc1 (centres unmarked) [Example 319]

Row | Structure (SMILES) | IC50
30 | CC(C)[C@](C)(O)COc1cc(C(=O)N[C@@H](CC(=O)O)c2cccc(Cl)c2)nn1-c1ccccc1F [Example 877, (S)-3-(3-Chloro-phenyl)-3-{[1-(2-fluoro-phenyl)-5-((S)-2-hydroxy-2,3-dimethyl-butoxy)-1H-pyrazole-3-carbonyl]-amino}-propionic acid] | 100 to 1000 nM
31 | Cc1ccc([C@H](CC(=O)O)NC(=O)c2cc(OC[C@](C)(O)C(C)C)n(-c3ccccc3F)n2)cc1 [Example 860, (S)-3-{[1-(2-Fluoro-phenyl)-5-((R)-2-hydroxy-2,3-dimethyl-butoxy)-1H-pyrazole-3-carbonyl]-amino}-3-p-tolyl-propionic acid] | < 100 nM
32 | CC(C)(C)[C@](C)(O)COc1cc(C(=O)N[C@@H](CC(=O)O)c2ccccc2F)nn1-c1ccccc1F [Example 883, (S)-3-(2-Fluoro-phenyl)-3-{[1-(2-fluoro-phenyl)-5-((S)-2-hydroxy-2,3,3-trimethyl-butoxy)-1H-pyrazole-3-carbonyl]-amino}-propionic acid] | < 100 nM
33 | COc1cccc([C@H](CC(=O)O)NC(=O)c2cc(OC[C@@](C)(O)C(C)(C)C)n(-c3ccccc3F)n2)c1OC [Example 884, (S)-3-(2,3-Dimethoxy-phenyl)-3-{[1-(2-fluoro-phenyl)-5-((S)-2-hydroxy-2,3,3-trimethyl-butoxy)-1H-pyrazole-3-carbonyl]-amino}-propionic acid] | < 100 nM

Same assay, conditions: recombinant human cathepsin A 833 ng/ml, Bodipy FL-labeled bradykinin 2 μM, pH 5.5; read-out: CATH-A IC50

Row | IC50 | Structure (SMILES)
34 | 398 nM | O=C(O)CC(NC(=O)c1cc(O)n(-c2ccc(Cl)cc2)n1)c1cc(F)ccc1Cl (centres unmarked) [Example 470, 3-(2-Chloro-5-fluoro-phenyl)-3-{[1-(4-chloro-phenyl)-5-hydroxy-1H-pyrazole-3-carbonyl]-amino}-propionic acid]
35 | 2990 nM | O=C(O)CC(NC(=O)c1cc(O)n(-c2ccccc2F)n1)c1ccc(N2CCCC2)cc1 (centres unmarked) [Example 566, 3-{[1-(2-Fluoro-phenyl)-5-hydroxy-1H-pyrazole-3-carbonyl]-amino}-3-(4-pyrrolidin-1-yl-phenyl)-propionic acid]
36 | 635 nM | O=C(O)CC(NC(=O)c1cc(O)n(-c2ccccc2F)n1)c1ccc(-n2cncn2)cc1 (centres unmarked) [Example 550, 3-{[1-(2-Fluoro-phenyl)-5-hydroxy-1H-pyrazole-3-carbonyl]-amino}-3-(4-[1,2,4]triazol-1-yl-phenyl)-propionic acid]
37 | 86.3 nM | O=C(O)CC(NC(=O)c1cc(O)n(-c2ccc(F)cc2F)n1)c1cc(Cl)ccc1Cl (centres unmarked) [Example 500, 3-(2,5-Dichloro-phenyl)-3-{[1-(2,4-difluoro-phenyl)-5-hydroxy-1H-pyrazole-3-carbonyl]-amino}-propionic acid]

Row | Structure (SMILES) | IC50
38 | Cc1ccc([C@H](CC(=O)O)NC(=O)c2cc(OC[C@](C)(O)C(C)C)n(-c3ccccc3F)n2)cc1 [Example 860, (S)-3-{[1-(2-Fluoro-phenyl)-5-((R)-2-hydroxy-2,3-dimethyl-butoxy)-1H-pyrazole-3-carbonyl]-amino}-3-p-tolyl-propionic acid] | 76.1 nM
39 | Cc1ccc([C@H](CC(=O)O)NC(=O)c2cc(OC[C@@](C)(O)C(C)C)n(-c3ccccc3F)n2)cc1 [Example 766, (S)-3-{[1-(2-Fluoro-phenyl)-5-((S)-2-hydroxy-2,3-dimethyl-butoxy)-1H-pyrazole-3-carbonyl]-amino}-3-p-tolyl-propionic acid] | 0.692 nM

Same assay, conditions: recombinant human cathepsin A; read-out: Activity (2): Cathepsin A inhibitory activity, IC50 class

Row | IC50 | Structure (SMILES)
40 | 100 to 1000 nM | COc1cc(C(=O)N[C@@H](CC(=O)N[C@@H](CO)C(C)C)c2ccccc2C)nn1-c1ccccc1F [Example 927, 1-(2-Fluoro-phenyl)-5-methoxy-1H-pyrazole-3-carboxylic acid [(S)-2-((R)-1-hydroxymethyl-2-methyl-propylcarbamoyl)-1-o-tolyl-ethyl]-amide]
41 | 100 to 1000 nM | O=C(O)CC(NC(=O)c1cc(O)n(-c2ccccc2F)n1)c1ccc(-c2ccccn2)cc1 (centres unmarked) [Example 481]
42 | 100 to 1000 nM | O=C(O)CC(NC(=O)c1cc(O)n(-c2ccc(Cl)cc2)n1)c1cc(F)ccc1Cl (centres unmarked) [Example 470, 3-(2-Chloro-5-fluoro-phenyl)-3-{[1-(4-chloro-phenyl)-5-hydroxy-1H-pyrazole-3-carbonyl]-amino}-propionic acid]
43 | 1000 to 30000 nM | COc1ccc([C@H](CC(=O)O)NC(=O)c2cc(O)n(-c3cccc(F)c3)n2)cc1 [Example 427]
44 | 100 to 1000 nM | COc1ccc(F)cc1C(CC(=O)O)NC(=O)c1cc(O)n(-c2cccc(F)c2)n1 (centres unmarked) [Example 520]
45 | 1000 to 30000 nM | COc1cc(C(=O)N[C@@H](CC(=O)NC(C)(C)C)c2ccccc2C)nn1-c1ccccc1F [Example 922, 1-(2-Fluoro-phenyl)-5-methoxy-1H-pyrazole-3-carboxylic acid ((S)-2-tert-butylcarbamoyl-1-o-tolyl-ethyl)-amide]
46 | 100 to 1000 nM | O=C(O)CC(NC(=O)c1cc(O)n(-c2cccc(Cl)c2)n1)c1ccc(-c2ccccc2)cc1 (centres unmarked) [Example 421]
47 | < 100 nM | O=C(O)CC(NC(=O)c1cc(O)n(-c2ccccc2F)n1)c1cc(Cl)ccc1Cl (centres unmarked) [Example 479]
48 | 100 to 1000 nM | O=C(O)CC(NC(=O)c1cc(O)n(-c2ccccc2F)n1)c1ccccc1 (centres unmarked) [Example 535]
49 | 100 to 1000 nM | Cc1c(F)cccc1C(CC(=O)O)NC(=O)c1cc(O)n(-c2ccc(F)cc2)n1 (centres unmarked) [Example 523, 3-(3-Fluoro-2-methyl-phenyl)-3-{[1-(4-fluoro-phenyl)-5-hydroxy-1H-pyrazole-3-carbonyl]-amino}-propionic acid]
50 | 100 to 1000 nM | COc1cc(C(=O)N[C@@H](CC(=O)NCc2nnn[nH]2)c2ccccc2C)nn1-c1ccccc1F [Example 928]
51 | 1000 to 30000 nM | CCC(COC)NC(=O)C[C@H](NC(=O)c1cc(OC)n(-c2ccccc2F)n1)c1ccccc1C (stereo partly drawn) [Example 921, 1-(2-Fluoro-phenyl)-5-methoxy-1H-pyrazole-3-carboxylic acid [(S)-2-(1-methoxymethyl-propylcarbamoyl)-1-o-tolyl-ethyl]-amide]
52 | < 100 nM | COC[C@H](C)NC(=O)C[C@H](NC(=O)c1cc(OC)n(-c2ccccc2F)n1)c1ccccc1C [Example 937, 1-(2-Fluoro-phenyl)-5-methoxy-1H-pyrazole-3-carboxylic acid [(S)-2-((S)-2-methoxy-1-methyl-ethylcarbamoyl)-1-o-tolyl-ethyl]-amide]
53 | < 100 nM | O=C(O)CC(NC(=O)c1cc(O)n(-c2ccc(F)cc2F)n1)c1cc(Cl)ccc1Cl (centres unmarked) [Example 500, 3-(2,5-Dichloro-phenyl)-3-{[1-(2,4-difluoro-phenyl)-5-hydroxy-1H-pyrazole-3-carbonyl]-amino}-propionic acid]
